Experimental data taken from US20260335327A1, “IDH MUTATIONS AS BIOMARKERS FOR ZOTIRACICLIB THERAPY” (Cothera Bioscience, Inc., priority 2022, published 2026).

Key:
Type in all cases: cell-based, Human
[1] = system: mutant IDH1 (HT-1080) cells; test: Neutral comet assay (DNA damage), HT-1080 cells; settings: for rescue of TG02-induced DNA damage: exogenous α-KG or AG-120 with TG02, 48 h
Method: (§1) Cell Culture. Human Chondrosarcoma cell line HT-1080 was cultured in MEM (Gibco, USA) supplemented with 10% fetal bovine serum (FBS, Gemini, USA). Human cholangiocarcinoma cell lines RBE, Hccc-9810, and Hucct-1 were cultured in RPMI1640 (Hyclone, USA) supplemented with 10% FBS. Cells were incubated at 37 °C in 5% CO2.
Comet assay. The comet assay is common technique for measurement of DNA damage in individual cells. Under an electrophoretic field, damaged cellular DNA (containing fragments and strand breaks) is separated from intact DNA, yielding a classic “comet tail” shape under the microscope. DNA damage was assayed by OxiSelect™ Comet Assay Kit (CELL BIOLABS, INC.) according to the manufacturer's instructions. Briefly, comet agarose was pipetted onto the OxiSelect™ Comet Slide to form a base layer. Cells were combined with OxiSelect™ Comet agarose at 37 °C, then the agarose/cell mixture was pipetted onto the top of the base layer. Cells were treated with lysis buffer and alkaline solution. Electrophoresis was performed under neutral conditions. The slides were viewed by epifluorescence microscopy using a FITC filter.
Tail Moment=(100×Tail DNA Intensity/Cell DNA Intensity)×Tail Moment Length

[2] = system: mutant IDH1 cells (Hccc-9810); test: Western blot of pH2AX (marker of DNA damage), Hccc-9810 cells; settings: exogenous AG-120 with TG02, 48 h; WB; FIG. 6
Method: as §1
(§2) Western blot. Hccc-9810 and Hucct-1 cells treated with TG02 or AG120 as indicated for 48 h (0.1% DMSO was added as control) were harvested and centrifuged at 500 g for 5 minutes to obtain cell pellets. Then the pellets were lysed in lysis buffer (Beyotime, China) which additionally included a protease inhibitor cocktail (Beyotime, China) and phosphatase inhibitor cocktail (Beyotime, China). Cells were incubated on ice for 30 minutes and then centrifuged at 4 °C, 12000 rpm for 10 minutes to obtain the supernatant as cell lysate. The concentrations of protein in cell lysate were determined by Micro BCA™ Protein Assay Kit (ThermoFisher, USA). 4×SDS-PAGE Sample Loading Buffer (SolarBio, China) was added into cell lysate contained 25 μg of total protein and, after boiling, the mixture was electrophoresed in polyacrylamide gel. After electrophoresis, proteins on the gel were transferred to PVDF membrane, and the membrane was cut at position close to the molecular weights of proteins whose expression was examined (pH2AX (CST, USA), GAPDH (ZSGB-BIO, China)).

HT-1080 = test: Apoptosis assay (Annexin V/PI staining, FACS), HT-1080 cells; settings: 0.2 μM TG02; IDH1-mutant chondrosarcoma HT-1080; compared with IDH1-WT (Hucct-1); FIGS. 2A-2B
Method: as §1
(§3) Apoptosis Assay. HT-1080, RBE, Hccc-9810, and Hucct-1 cells were treated with the indicated drugs. Apoptosis was detected by Annexin V/PI staining kit (Thermo Fisher) according to the manufacturer's instructions. Briefly, cells were plated at a density of 1× 10^5 cells/well in media with 10% FBS with desired concentrations of TG02. At 48/72-hour post-treatment the cells were harvested and tested for apoptosis by Annexin V and PI staining. Cell analysis was performed using a FACSCelesta (BD).

Hucct1^R132H/+ cells = test: Neutral comet assay (Tail moment), Hucct1^R132H/+ cells; settings: 0.2 μM TG02, 48 h, compared with Hucct1 treated with TG02, FIG. 7A
Method: as §1
(§4) Comet assay. The comet assay is common technique for measurement of DNA damage in individual cells. Under an electrophoretic field, damaged cellular DNA (containing fragments and strand breaks) is separated from intact DNA, yielding a classic “comet tail” shape under the microscope. DNA damage was assayed by OxiSelect™ Comet Assay Kit (CELL BIOLABS, INC.) according to the manufacturer's instructions. Briefly, comet agarose was pipetted onto the OxiSelect™ Comet Slide to form a base layer. Cells were combined with OxiSelect™ Comet agarose at 37 °C, then the agarose/cell mixture was pipetted onto the top of the base layer. Cells were treated with lysis buffer and alkaline solution. Electrophoresis was performed under neutral conditions. […]
In FIG. 7A, IDH1-mutant Hucct1 cells (Hucct1^R132H/+) were generated by lentivirus expressing IDH1 R132H. […] Quantification of Tail moment in neutral comet assay is presented. ns: no significant differences; ***: P<0.001, ****: P<0.0001, compared with NC; #: P<0.05, compared with Hucct1 cells treated with TG02. […]

Hucct1R132H/+ cells = test: Western blot of phosphorylated γH2AX (marker of DSBs), Hucct1^R132H/+ cells; settings: 0.2 μM TG02, 16 h, FIG. 7B
Method: as §2, with “Hccc-9810 and Hucct-1 cells treated with TG02 or AG120 as indicated for 48 h (0.1% DMSO was added as control) were harvested and centrifuged at 500 g for 5 minutes to obtain cell pellets.” left out
In FIG. 7A, IDH1-mutant Hucct1 cells (Hucct1^R132H/+) were generated by lentivirus expressing IDH1 R132H. Hucct1, Hucct1^R132H/+ and HT-1080 cells were treated with 0.2 μM TG02 or 0.1% DMSO for 48 h. Cells were used to comet assays. Quantification of Tail moment in neutral comet assay is presented. ns: no significant differences; ***: P<0.001, ****: P<0.0001, compared with NC; #: P<0.05, compared with Hucct1 cells treated with TG02. […]

[3] = system: Hucct-1 cells transfected with IDH1 R132H plasmid; test: Apoptosis assay (FACS), Hucct-1 cells transfected with IDH1 R132H plasmid; settings: 0.1 μM TG02, 72 h; Hucct-1 transfected with IDH1 R132H; FIG. 3A
Method: as §1, §3
Transfection. The day before transfection, cells (~2×10^5/well) were seeded in a 6-well plate. The cells were cultured in a 37 °C in 5% CO2 incubator overnight. The old medium was removed and 2 ml of transfection medium was added. 50 μl opti-MEM was added to a tube, and then 2 μg plasmid DNA Mix solution was mixed by vortexing. 4 μl PEI solution was added to this tube, and the solution was mixed by gently pipetting up and down. The samples were incubated at room temperature for 15 min to allow the PEI/DNA complexes to form. […]

mutant IDH1 cancer cells = test: Overall conclusion on DNA damage and cell-killing in mutant IDH1 versus homozygous wild-type IDH1 cancer cells; settings: mutant IDH1 relative to homozygous wild-type IDH1 cancer cells
Method: as §3, §4
Western blot. […] The concentrations of protein in cell lysate were determined by Micro BCA™ Protein Assay Kit (ThermoFisher, USA). […]

RBE = test: Apoptosis assay (Annexin V/PI staining, FACS), RBE cells; settings: 0.2 μM TG02; IDH1-mutant cholangiocarcinoma RBE; compared with IDH1-WT (Hucct-1); FIGS. 2A-2B
Method: as §1, §3

Hccc-9810 = test: Apoptosis assay (Annexin V/PI staining, FACS), Hccc-9810 cells
Method: as §1, §3

[4] = neutral comet assay, FIGS. 5A-5B

Row | SMILES | rescue of TG02-induced DNA damage [1, 4] | rescue of TG02-induced DNA damage (pH2AX) [2] | sensitivity to TG02 (apoptosis) (HT-1080) | sensitivity to DNA damage induced by TG02 (Tail moment) ([1]; 0.2 μM TG02, 48 h, HT-1080, compared with Hucct1 treated with TG02, FIG. 7A) | TG02-induced DNA damage ([1]; 48 h, neutral comet assay, FIGS. 5A-5B) | sensitivity to DNA damage induced by TG02 (Tail moment) (Hucct1^R132H/+ cells) | sensitivity to DNA damage induced by TG02 (phosphorylated γH2AX) (Hucct1R132H/+ cells) | TG02 sensitivity (apoptosis) [3] | selective DNA damage (mutant IDH1 cancer cells) | selective cell-killing (mutant IDH1 cancer cells) | sensitivity to TG02 (apoptosis) (RBE) | sensitivity to TG02 (apoptosis) (Hccc-9810; 0.2 μM TG02, IDH1-mutant cholangiocarcinoma Hccc-9810 (printed Hcc-9810), compared with IDH1-WT (Hucct-1), FIGS. 2A-2B) | TG02-induced apoptosis (Hccc-9810; TG02 for 72 h, without exogenous α-KG, FIG. 4) | rescue of TG02-induced apoptosis (Hccc-9810; α-KG pretreatment 24 h, then TG02 for 72 h, FIG. 4)
1 | N#Cc1ccnc(N2C(=O)CC[C@H]2C(=O)N(c2cncc(F)c2)[C@H](C(=O)NC2CC(F)(F)C2)c2ccccc2Cl)c1 [AG-120, ivosidenib] | can be rescued by addition of exogenous α-KG or AG-120 | TG02-induced DNA damage was rescued only in mutant IDH1 cells (Hccc-9810) |  |  |  |  |  |  |  |  |  |  |  | 
2 | CN1C/C=C/CCOc2cccc(c2)-c2ccnc(n2)Nc2cccc(c2)C1 [TG02, (16E)-14-methyl-20-oxa-5,7,14,27-tetraazatetracyclo[19.3.1.1^2,6. 1^8,12]heptacosa-1(25),2(27),3,5,8,10,12(26),16,21,23-decaene] |  |  | more sensitive to TG02 than IDH1-WT (Hucct-1) cells | cells with IDH1 mutation are more sensitive to DNA damage induced by TG02 | TG02-induced DNA damage in mutant IDH1 (HT-1080) cells | cells with IDH1 mutation are more sensitive to DNA damage induced by TG02 | cells with IDH1 mutation are more sensitive to DNA damage induced by TG02 | increased TG02 sensitivity can be conferred onto IDH1-WT (Hucct-1) cells by transfection of mutated IDH1 | selectively induces DNA damage and cell-killing in mutant IDH1 cancer cells relative to homozygous wild-type IDH1 cancer cells | selectively induces DNA damage and cell-killing in mutant IDH1 cancer cells relative to homozygous wild-type IDH1 cancer cells | more sensitive to TG02 than IDH1-WT (Hucct-1) cells | more sensitive to TG02 than IDH1-WT (Hucct-1) cells | TG02-induced apoptosis of mutant IDH1 (Hccc-9810) cells | 
3 | O=C(O)CCC(=O)C(=O)O [α-KG, α-ketoglutarate] | can be rescued by addition of exogenous α-KG or AG-120 |  |  |  |  |  |  |  |  |  |  |  |  | can be rescued by addition of exogenous substrate α-ketoglutarate (α-KG)
